One block for each compound: values may come before it.
Assays:
[1] = tested on: serine hydrolase targets from mouse brain and COLO205 membrane proteomes; assay: Competitive gel-based ABPP of β-lactone probe set; format: biochemical; settings: 25 μM, 30 min, 37° C., then FP-rhodamine
Experimental: Competitive gel-based ABPP were performed as described previously with slight modifications. See Adibekian et al. Nat. Chem. Biol. (2011) 7, 469. […] The reactions were quenched by adding 40 μL of 4×SDS-PAGE loading buffer for reducing gels, followed by boiling for 2 minutes. All samples were visualized in-gel using an FMBio II Multiview flatbed fluorescence scanner (Hitachi). The fluorescence from rhodamine is presented in gray scale.

[2] = biological target: T1, PNPLA4 (Homo sapiens, UniProt P41247); assay: ABPP-SILAC of COLO205 membrane proteome treated with compound 8b; format: biochemical; settings: 30 min
T1 construct: All ABPP-SILAC experiments were performed using the human COLO205 colon cancer cell line; endogenous in cells; host or cells: COLO205
T1 sequence (P41247 whole entry): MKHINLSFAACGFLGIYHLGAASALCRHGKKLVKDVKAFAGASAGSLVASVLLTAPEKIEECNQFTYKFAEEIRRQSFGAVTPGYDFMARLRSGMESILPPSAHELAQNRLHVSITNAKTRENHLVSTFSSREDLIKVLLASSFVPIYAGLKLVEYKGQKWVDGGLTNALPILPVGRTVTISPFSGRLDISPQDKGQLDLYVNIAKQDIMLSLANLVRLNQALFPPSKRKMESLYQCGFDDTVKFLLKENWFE

[3] = biological target: T2, FAAH (Homo sapiens, UniProt O00519); assay: as above; format: biochemical; settings: 30 min
T2 construct: All ABPP-SILAC experiments were performed using the human COLO205 colon cancer cell line; endogenous in cells; host or cells: COLO205
T2 sequence (O00519 whole entry): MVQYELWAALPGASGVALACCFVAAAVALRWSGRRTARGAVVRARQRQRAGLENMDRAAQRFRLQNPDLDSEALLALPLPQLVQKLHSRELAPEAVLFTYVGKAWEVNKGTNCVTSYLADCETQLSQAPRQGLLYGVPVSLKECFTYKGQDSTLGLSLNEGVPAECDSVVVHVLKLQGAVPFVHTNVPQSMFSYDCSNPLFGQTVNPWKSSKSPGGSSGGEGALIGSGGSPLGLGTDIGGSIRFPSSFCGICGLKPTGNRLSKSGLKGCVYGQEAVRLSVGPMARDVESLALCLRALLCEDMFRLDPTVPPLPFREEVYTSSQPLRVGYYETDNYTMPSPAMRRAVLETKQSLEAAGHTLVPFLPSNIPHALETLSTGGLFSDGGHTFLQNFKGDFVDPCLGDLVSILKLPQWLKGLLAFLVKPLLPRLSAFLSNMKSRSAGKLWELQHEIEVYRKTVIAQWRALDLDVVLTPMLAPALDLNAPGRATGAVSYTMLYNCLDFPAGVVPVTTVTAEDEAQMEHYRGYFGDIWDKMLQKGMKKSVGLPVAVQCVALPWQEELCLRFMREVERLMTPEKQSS

[4] = biological target: T3, ABHD2 (Homo sapiens, UniProt P08910); assay: as above; format: biochemical; settings: 30 min
T3 construct: All ABPP-SILAC experiments were performed using the human COLO205 colon cancer cell line; endogenous in cells; host or cells: COLO205
T3 sequence (P08910 whole entry): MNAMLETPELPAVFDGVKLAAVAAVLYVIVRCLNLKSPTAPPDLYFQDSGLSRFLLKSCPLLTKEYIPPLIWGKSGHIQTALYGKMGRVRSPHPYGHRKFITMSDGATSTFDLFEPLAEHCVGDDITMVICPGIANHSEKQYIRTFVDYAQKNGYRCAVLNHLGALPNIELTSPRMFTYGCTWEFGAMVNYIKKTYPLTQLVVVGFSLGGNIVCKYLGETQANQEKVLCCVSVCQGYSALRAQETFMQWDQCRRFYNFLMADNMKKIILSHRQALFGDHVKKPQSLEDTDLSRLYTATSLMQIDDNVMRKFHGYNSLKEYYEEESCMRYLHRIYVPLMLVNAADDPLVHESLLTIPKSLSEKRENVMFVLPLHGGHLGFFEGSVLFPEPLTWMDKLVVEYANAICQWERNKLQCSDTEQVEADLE

[5] = biological target: T4, CES2 (Homo sapiens, UniProt O00748); assay: as above; format: biochemical; settings: 30 min
T4 construct: All ABPP-SILAC experiments were performed using the human COLO205 colon cancer cell line; endogenous in cells; host or cells: COLO205

[6] = biological target: T5, ABHD12 (Homo sapiens, UniProt Q8N2K0); assay: as above; format: biochemical; settings: 30 min
T5 construct: All ABPP-SILAC experiments were performed using the human COLO205 colon cancer cell line; endogenous in cells; host or cells: COLO205
T5 sequence (Q8N2K0 whole entry): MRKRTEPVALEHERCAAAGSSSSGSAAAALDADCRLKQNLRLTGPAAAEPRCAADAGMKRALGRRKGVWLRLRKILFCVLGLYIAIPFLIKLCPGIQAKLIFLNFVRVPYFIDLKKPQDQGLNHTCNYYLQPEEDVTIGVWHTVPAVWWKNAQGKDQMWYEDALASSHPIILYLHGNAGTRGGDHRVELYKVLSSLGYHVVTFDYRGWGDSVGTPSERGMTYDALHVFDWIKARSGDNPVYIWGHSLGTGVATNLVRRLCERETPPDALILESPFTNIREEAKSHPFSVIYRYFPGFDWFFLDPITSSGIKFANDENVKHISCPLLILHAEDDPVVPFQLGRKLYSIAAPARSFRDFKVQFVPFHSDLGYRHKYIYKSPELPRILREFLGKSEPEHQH

[7] = biological target: T6, FASN (Homo sapiens, UniProt P49327); assay: as above; format: biochemical; settings: 30 min
T6 construct: All ABPP-SILAC experiments were performed using the human COLO205 colon cancer cell line; endogenous in cells; host or cells: COLO205
T6 sequence (P49327 whole entry): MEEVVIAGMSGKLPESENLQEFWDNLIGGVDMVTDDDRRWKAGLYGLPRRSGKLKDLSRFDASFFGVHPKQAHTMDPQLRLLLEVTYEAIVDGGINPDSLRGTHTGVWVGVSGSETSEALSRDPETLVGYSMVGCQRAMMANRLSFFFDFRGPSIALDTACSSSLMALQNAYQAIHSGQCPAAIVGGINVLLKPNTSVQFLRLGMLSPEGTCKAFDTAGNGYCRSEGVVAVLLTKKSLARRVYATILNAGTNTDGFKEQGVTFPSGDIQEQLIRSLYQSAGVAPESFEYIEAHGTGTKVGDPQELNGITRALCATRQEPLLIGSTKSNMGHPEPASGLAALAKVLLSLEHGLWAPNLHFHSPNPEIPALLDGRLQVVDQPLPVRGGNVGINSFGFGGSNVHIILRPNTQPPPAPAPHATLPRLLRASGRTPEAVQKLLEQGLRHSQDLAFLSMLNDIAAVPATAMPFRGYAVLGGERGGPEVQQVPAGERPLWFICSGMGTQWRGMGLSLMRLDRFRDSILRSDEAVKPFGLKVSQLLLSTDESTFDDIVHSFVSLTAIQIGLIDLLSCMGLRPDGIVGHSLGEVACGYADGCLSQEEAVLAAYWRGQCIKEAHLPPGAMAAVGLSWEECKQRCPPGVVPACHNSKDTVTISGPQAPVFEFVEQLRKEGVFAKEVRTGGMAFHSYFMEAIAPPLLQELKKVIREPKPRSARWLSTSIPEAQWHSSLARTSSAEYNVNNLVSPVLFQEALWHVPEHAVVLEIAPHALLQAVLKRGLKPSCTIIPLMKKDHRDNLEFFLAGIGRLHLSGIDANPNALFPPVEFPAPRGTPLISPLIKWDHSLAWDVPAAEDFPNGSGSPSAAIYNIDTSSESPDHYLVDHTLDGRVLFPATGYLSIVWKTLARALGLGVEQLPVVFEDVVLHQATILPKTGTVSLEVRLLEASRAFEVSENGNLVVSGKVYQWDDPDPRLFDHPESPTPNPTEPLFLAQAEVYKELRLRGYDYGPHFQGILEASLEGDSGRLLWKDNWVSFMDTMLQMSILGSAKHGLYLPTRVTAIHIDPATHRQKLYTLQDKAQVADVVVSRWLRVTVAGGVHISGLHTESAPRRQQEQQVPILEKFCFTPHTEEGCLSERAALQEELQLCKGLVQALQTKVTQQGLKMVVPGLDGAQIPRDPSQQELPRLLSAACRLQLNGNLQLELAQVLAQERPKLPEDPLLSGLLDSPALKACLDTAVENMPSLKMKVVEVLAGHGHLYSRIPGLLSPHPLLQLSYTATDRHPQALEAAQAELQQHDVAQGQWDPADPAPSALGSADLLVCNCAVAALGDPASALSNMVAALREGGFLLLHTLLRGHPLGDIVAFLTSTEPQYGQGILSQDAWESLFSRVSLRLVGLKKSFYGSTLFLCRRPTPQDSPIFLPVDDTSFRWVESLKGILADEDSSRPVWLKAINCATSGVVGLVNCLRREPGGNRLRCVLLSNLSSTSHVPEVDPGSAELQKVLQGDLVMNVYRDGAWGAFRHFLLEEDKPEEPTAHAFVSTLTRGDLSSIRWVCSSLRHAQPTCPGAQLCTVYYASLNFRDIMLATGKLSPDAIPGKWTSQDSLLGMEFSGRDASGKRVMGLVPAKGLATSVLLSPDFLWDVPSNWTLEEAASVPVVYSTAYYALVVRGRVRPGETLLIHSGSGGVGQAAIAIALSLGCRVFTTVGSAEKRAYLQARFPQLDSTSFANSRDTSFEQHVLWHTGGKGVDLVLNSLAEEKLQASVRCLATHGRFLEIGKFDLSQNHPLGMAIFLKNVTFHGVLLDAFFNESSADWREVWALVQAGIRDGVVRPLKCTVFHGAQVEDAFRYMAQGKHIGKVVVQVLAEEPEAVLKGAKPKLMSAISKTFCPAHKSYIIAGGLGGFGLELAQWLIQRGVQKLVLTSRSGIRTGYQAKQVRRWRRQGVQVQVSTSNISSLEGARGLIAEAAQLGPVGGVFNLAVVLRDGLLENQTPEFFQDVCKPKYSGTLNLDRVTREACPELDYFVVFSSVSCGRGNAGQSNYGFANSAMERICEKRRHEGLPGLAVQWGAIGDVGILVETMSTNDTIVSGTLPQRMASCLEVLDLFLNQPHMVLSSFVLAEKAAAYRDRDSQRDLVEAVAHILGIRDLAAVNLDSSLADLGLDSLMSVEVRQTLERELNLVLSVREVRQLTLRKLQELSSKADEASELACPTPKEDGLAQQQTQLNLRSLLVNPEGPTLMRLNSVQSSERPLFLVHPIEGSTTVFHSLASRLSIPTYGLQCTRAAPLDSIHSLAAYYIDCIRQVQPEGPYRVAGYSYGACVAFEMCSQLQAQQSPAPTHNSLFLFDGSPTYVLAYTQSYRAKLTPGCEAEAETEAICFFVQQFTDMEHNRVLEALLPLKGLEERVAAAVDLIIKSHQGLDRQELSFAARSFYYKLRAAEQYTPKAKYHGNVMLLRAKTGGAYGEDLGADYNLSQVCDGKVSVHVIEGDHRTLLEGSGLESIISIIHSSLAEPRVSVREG

[8] = biological target: T7, ABHD3 (Homo sapiens, UniProt Q8WU67); assay: as above; format: biochemical; settings: 30 min
T7 construct: All ABPP-SILAC experiments were performed using the human COLO205 colon cancer cell line; endogenous in cells; host or cells: COLO205
T7 sequence (Q8WU67 whole entry): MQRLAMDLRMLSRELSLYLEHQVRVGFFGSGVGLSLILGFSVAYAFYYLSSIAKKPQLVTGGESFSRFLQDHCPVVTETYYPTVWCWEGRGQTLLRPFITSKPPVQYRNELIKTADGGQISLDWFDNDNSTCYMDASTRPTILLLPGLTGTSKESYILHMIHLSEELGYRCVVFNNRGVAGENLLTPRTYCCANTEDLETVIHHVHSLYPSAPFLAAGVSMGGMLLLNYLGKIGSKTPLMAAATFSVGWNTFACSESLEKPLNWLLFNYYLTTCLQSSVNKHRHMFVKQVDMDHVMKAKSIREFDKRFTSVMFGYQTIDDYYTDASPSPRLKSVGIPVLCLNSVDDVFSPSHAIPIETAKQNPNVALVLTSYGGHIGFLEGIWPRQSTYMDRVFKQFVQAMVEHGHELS

[9] = biological target: T8, ABHD16A (Homo sapiens, UniProt O95870); assay: as above; format: biochemical; set-up: All ABPP-SILAC experiments were performed using the human COLO205 colon cancer cell line; endogenous in cells; host or cells: COLO205; settings: 30 min
T8 sequence (O95870 1-558): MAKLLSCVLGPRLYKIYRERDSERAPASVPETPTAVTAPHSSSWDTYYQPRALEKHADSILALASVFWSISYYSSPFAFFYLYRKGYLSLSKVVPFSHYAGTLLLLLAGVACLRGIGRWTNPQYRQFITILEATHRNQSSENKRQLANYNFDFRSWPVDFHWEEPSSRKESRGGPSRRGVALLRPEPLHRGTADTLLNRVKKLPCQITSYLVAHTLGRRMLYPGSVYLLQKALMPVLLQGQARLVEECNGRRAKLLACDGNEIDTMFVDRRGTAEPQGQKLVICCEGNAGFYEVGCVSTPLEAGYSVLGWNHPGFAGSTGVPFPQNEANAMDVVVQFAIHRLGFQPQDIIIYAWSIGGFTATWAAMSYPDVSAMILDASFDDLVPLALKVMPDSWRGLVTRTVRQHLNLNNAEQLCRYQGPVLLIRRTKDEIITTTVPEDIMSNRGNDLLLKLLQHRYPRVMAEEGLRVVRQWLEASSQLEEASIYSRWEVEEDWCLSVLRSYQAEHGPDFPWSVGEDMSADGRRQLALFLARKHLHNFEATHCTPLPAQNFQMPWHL

[10] = biological target: T9, mouse ABHD16A (Mus musculus, UniProt Q9Z1Q2); assay: PS substrate assay, mouse ABHD16A-transfected HEK293T proteome; format: biochemical; settings: 20 μM, 30 min, 37° C.
T9 construct: full-length cDNA of human ABHD16A (Open Biosystems Catalog # MHS6278-202758315) or murine ABHD16A (Open Biosystems Catalog # MMM1013-202760516); host or cells: HEK293T, transient, pCMV-SPORT6
T9 sequence (Q9Z1Q2 1-558): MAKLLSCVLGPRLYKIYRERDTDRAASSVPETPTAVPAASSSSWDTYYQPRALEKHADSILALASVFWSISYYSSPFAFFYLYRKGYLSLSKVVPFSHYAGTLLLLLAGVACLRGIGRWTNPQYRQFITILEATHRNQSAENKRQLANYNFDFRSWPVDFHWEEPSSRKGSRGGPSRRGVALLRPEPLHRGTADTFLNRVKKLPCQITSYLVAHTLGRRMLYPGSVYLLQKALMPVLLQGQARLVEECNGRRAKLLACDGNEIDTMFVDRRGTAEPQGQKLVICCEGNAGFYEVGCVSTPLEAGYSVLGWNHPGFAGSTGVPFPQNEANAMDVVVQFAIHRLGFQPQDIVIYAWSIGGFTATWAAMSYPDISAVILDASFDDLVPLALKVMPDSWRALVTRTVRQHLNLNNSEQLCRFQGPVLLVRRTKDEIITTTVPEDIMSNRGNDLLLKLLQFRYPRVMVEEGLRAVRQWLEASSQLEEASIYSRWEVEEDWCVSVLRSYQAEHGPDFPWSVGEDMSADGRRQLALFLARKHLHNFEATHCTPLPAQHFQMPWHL

[11] = biological target: T8, ABHD16A; assay: PS substrate assay, human ABHD16A-transfected HEK293T membrane proteome; format: biochemical; set-up: transiently transfected with 12 μg of the full-length cDNA of human ABHD16A (Open Biosystems Catalog # MHS6278-202758315); host or cells: HEK293T, transient, pCMV-SPORT6; settings: 20 μM, 30 min
Experimental: HEK293T cells were grown to 40% confluence in a 15 cm dish in 25 mL of Dulbecco's modified Eagle medium (DMEM) supplemented with L-glutamine and 10% (vol/vol) FCS at 37° C. and 5% CO2 (vol/vol). The cells were transiently transfected with 12 μg of the full-length cDNA of human ABHD16A (Open Biosystems Catalog # MHS6278-202758315) or murine ABHD16A (Open Biosystems Catalog # MMM1013-202760516) in pCMV-SPORT6 vector using 40 μg polyethyleneimine “MAX” (MW 40,000) (PEI) (Polysciences Inc. Catalog #24765) as the transfection reagent as per manufacturer's instructions. As a “mock” control, an empty vector was transiently transfected. […] Protein concentration was measured using the Bio-Rad DC Protein Assay Kit as per manufacturer's protocol, and ABHD16A expression was confirmed using gel-based ABPP.
All the lipid species used in the lipid substrate hydrolysis assays were purchased from Avanti Polar Lipids Inc unless mentioned otherwise. […] All the data was collected and analyzed using the Agilent MassHunter Workstation software version B.04 using the Data Acquisition and Quantitative Analysis programs respectively. Measuring the area under the peak, and normalizing it to the internal standard quantified the product release for the lipid substrate hydrolysis assays. […] Some products from the substrate hydrolysis assays were detected in positive ion mode for qualitative identification. […]

[12] = tested on: ABHD16A−/− macrophages; assay: Lyso-PS and cytokines of ABHD16A−/− macrophages; format: cell-based, mouse; settings: basal or LPS stimulation; 1 μM, 4 h
Experimental: Concentration of secreted lyso-PS (a) and cytokines IL-6 (b) and TNF-α (c) from thioglycollate-elicited peritoneal mouse macrophages from ABHD16A^−/− mice treated with inhibitor (KC01 or KC02, 1 μM, 4 h) followed by vehicle (PBS) or LPS (5 μg/mL) for 7 h is shown. Data represent mean±s.e.m. for four biological replicates. KC01 and KC02 have no effect on lyso-PS or cytokine secretion. Other secreted and cellular lipids in ABHD16A^−/− macrophages were also unchanged by KC01 or KC02 treatment (data not shown).
Peritoneal macrophages were elicited and harvested from mice according to the standard protocols available from LIPID MAPS (See http://www.lipidmaps.org/protocols/PP0000001400.pdf and http://www.lipidmaps.org/protocols/PP0000001500.pdf). After removal of the RBC lysis buffer, the macrophages were re-suspended in RPMI 1640 with 10% FCS and IX penicillin-streptomycin. Cell counts measured using a Bio-Rad TC10 automated cell counter, and equal numbers of cells (2×10^6) were plated in 10 cm tissue culture dishes. Macrophages were allowed to adhere to the plates for 2 h at 37° C. and 5% CO2. […] Macrophages were then stimulated with lipopolysaccharide (5 μg/mL) for 7 hours. Sterile PBS was the vehicle in these studies. Four milliliters of the media was used for measuring secreted metabolites, and 0.5 mL was used for cytokine measurements.

[13] = biological target: T8, ABHD16A; assay: ABPP-SILAC, COLO205 cells treated in situ; format: cell-based; set-up: All ABPP-SILAC experiments were performed using the human COLO205 colon cancer cell line; endogenous in cells; host or cells: COLO205; settings: COLO 205, 4 h

Structure (SMILES): CCCCCCCCCCCCCC1OC(=O)/C1=C\c1ccccc1 (stereo not drawn) [Compound 3, (Z)-3-benzylidene-4-tridecyloxetan-2-one]
- melting point: 61 to 62 °C

Structure (SMILES): CCCCCCCCCCCCC[C@@H]1OC(=O)[C@H]1Cc1ccccc1 (relative stereo) [Compound 8b, (trans)-3-benzyl-4-tridecyloxetan-2-one]
- reactivity / inhibition of serine hydrolase activities [1]: broadest reactivity
- inhibition at 25 µM [2]: > 90%
- inhibition at 25 µM [3]: > 90%
- inhibition at 25 µM [4]: > 90%
- inhibition at 25 µM [5]: > 90%
- inhibition at 25 µM [6]: > 90%
- inhibition at 25 µM [7]: 70 to 90%
- inhibition at 25 µM [8]: 70 to 90%
- inhibition at 25 µM [9]: > 90%

Structure (SMILES): CCCCCCCCCCC[C@@H](C[C@@H]1OC(=O)[C@H]1CCCCCC)OC(=O)[C@H](CC(C)C)NC=O [THL, tetrahydrolipstatin, reference compound]
- heightened PS lipase activity of ABHD16A-transfected proteome [10]: blocked
- heightened PS lipase activity of ABHD16A-transfected proteome [11]: blocked

Structure (SMILES): CCCCCCCCCCCCCC1OC(=O)/C1=C\CCCCc1ccccc1 (stereo not drawn) [Compound 4, (Z)-3-(5-phenylpentylidene)-4-tridecyloxetan-2-one]
- melting point: 34 to 35 °C

The next lines start with results.

- melting point: 93 to 94 °C
Structure (SMILES): NC(=O)CCCC/C=C1\C(=O)OC1CCCCCCCCCc1ccccc1 (stereo not drawn) [Compound 15, (Z)-6-(2-Oxo-4-(9-phenylnonyl)oxetan-3-ylidene)hexanamide]

- melting point: 98 to 101 °C
Structure (SMILES): CCCCCCCCCCCCCC1OC(=O)C1CCCCCC(N)=O (mixture of isomers) [Compound 17, (cis/trans)-6-(2-Oxo-4-tridecyloxetan-3-yl)hexanamide]

- melting point: 79 to 80 °C
Structure (SMILES): CCCCCCCCCCCCCC1OC(=O)/C1=C\CCCCCS(N)(=O)=O (stereo not drawn) [Compound 16, (Z)-6-(2-Oxo-4-tridecyloxetan-3-ylidene)hexane-1-sulfonamide]

- inhibition at 1 µM [13]: < 30%
Structure (SMILES): NC(=O)CCCCC=C1C(=O)OC1CCc1ccccc1 (mixture of isomers) [KC02, (E/Z)-6-(2-Oxo-4-(2-phenethyl)oxetan-3-ylidene)hexanamide]
- cellular or secreted lyso-PS, other lipids, secreted IL-6 and TNF-α [12]: No changes

Reference: patent US20170313669A1, “LACTONE COMPOUNDS AND METHODS OF MAKING AND USING SAME” (THE SCRIPPS RESEARCH INSTITUTE, priority 2015, published 2017)
